Experiments:
Type in all cases: in vivo
Swiss Albino mice [1] = experiment: Force swim test, paraxanthine plus tyrosine study (Example 2); conditions: oral once a day for 28 days; for Duration of mobility/active swimming: 30 min force swim on 28th day, n=8
Description: (§1) Thirty-two 8-week-old male Swiss Albino mice were housed in an animal room at a constant temperature (22±3° C.) and humidity (30%-70%) under a 12:12 h light-dark cycle with standard laboratory diet (Purina 5L79, Rat and Mouse 18% protein; PMI Nutrition International, Brentwood, Mo., USA). Distilled water was provided ad libitum. All animal experiments were reviewed and approved by the Institutional Animal Ethical Committee (IAEC) of Radiant Research Services Pvt. Ltd (Bangalore, India). All research was conducted in accordance with the guidelines of the committee for the purpose of control and supervision of experiments on animals.
(§2) After one week of acclimation, the animals were randomly divided by body weight into four groups (n=8 per group in each test) for oral treatment once a day, at approximately same time each day (±1 hour), for 28 consecutive days: (1) vehicle control or (2) paraxanthine or (3) tyrosine or (4) tyrosine plus paraxanthine. The dose administered to the mice was calculated using US Food and Drug Administration for human equivalence doses (HED), assuming a human weight of 60 kg. The following HED was used in this study: 100 mg paraxanthine (ENFINITY®, Ingenious Ingredients, L.P Lewisville, Tex., USA; mouse dose: 20.5 mg/kg bw/day) or 500 mg tyrosine (mouse dose: 102.75 mg/kg bw/day), or 500 mg tyrosine (mouse dose: 102.75 mg/kg bw/day) plus 100 mg paraxanthine (ENFINITY®, Ingenious Ingredients, L.P Lewisville, Tex., USA; mouse dose: 20.5 mg/kg bw/day). 0.5% Carboxy Methyl Cellulose sodium was used as vehicle and the test item formulations were prepared daily. Dosing was conducted via oral gavage using disposable polypropylene syringes with sterilized stainless steel gavage tubes. Food intake was monitored daily while water intake was ad libitum.
During treatment period, training was accomplished on a swimming chamber at a moderate room temperature for 15 mins. […] The parameters measured were total time spent in active swimming (the total duration during which the animal swims throughout the experimental period).

Swiss Albino mice [2] = experiment: Cook's pole climbing test after scopolamine-induced amnesia; conditions: for Escape latency: Cook's pole climbing test, scopolamine i.p., n=8; for Escape latency, faster than control: relative to vehicle control
Description: Behavioral studies were conducted in mice to examine the learning and memory ability by using Cook's pole test.
as §1
as §2, with “7” for “28”
Mice were trained in such a way that the animal had to climb the pole (shock free zone) within 30 seconds to avoid a shock. The shock was preceded by a buzzer that lasted for 15 seconds. The animals were trained to climb the pole at the sound of the buzzer (conditioned avoidance response). At particular intervals, 20 trials were given for each animal and average of the shock avoidance and mistakes were recorded. Trained animals were assayed by conditioned avoidance responses.
Amnesia was induced by using the scopolamine injection. Scopolamine is an anti-cholinergic and is an attractive amnesic agent for discerning the action of candidate anti amnesic drugs. Scopolamine is a non-selective post synaptic muscarinic receptor blocker and can cause cognitive impairments in rodents and humans via decreasing the effectiveness of ACH in the CNS in animals and humans. Scopolamine can induce the significant deficits in cognitive performance on behavioral tests which makes it a valid pharmacological model for inducing cognitive deficits. In this study to evaluate the cognitive effect, the mice were injected with scopolamine intraperitoneally to induce memory deficits.

Swiss Albino mice [3] = experiment: Force swim test, paraxanthine plus taurine study (Example 3); conditions: 30 min force swim on 28th day; oral once a day for 28 days; n=8
Description: as §1, with “Twenty-four” for “Thirty-two”
as §2, with “into three” for “into four”, “(1) paraxanthine” for “(1) vehicle control”, “(2) taurine” for “(2) paraxanthine”, “(3) taurine” for “(3) tyrosine or (4) tyrosine”, “mg taurine” for “mg tyrosine”
During treatment period, training was accomplished on a swimming chamber at a moderate room temperature for 15 mins. The animals were adapted to this procedure daily 1 hr after dosing for 5 days in a week during the treatment period. On 28th day of respective treatment of all the animals were subjected to force swim test. Animals were forced to swim individually for 30 min in a glass jar of height 20 cm, diameter 10 cm, and filled with fresh water to a depth of 15 cm at room temperature. The parameter measured was total time spent in active swimming (the total duration during which the animal swims throughout the experimental period) and duration of immobility (the total time during which the animal is immobile).

Swiss Albino mice [4] = experiment: Forelimb grip strength test; conditions: oral once a day for 28 days; measured on day 0 and day 28, one hour after treatment
Description: as §1
After one week of acclimation, the animals were randomly divided by body weight into four groups (n=8 per group in each test) for oral treatment once a day, at approximately same time each day (±1 hour), for 28 consecutive days: (1) vehicle control or (2) paraxanthine or (3) tyrosine or (4) tyrosine plus paraxanthine. The dose administered to the mice was calculated using US Food and Drug Administration for human equivalence doses (HED), assuming a human weight of 60 kg. […] Food intake was monitored daily while water intake was ad libitum.
The forelimb grip strength was measured on day 0 and day 28 by using a stainless-steel grill to assess muscle strength (Orchid Scientific & Innovative India Pvt Ltd, India). Grip strength was measured one hour after treatment. […]

Row | SMILES | Duration of mobility/active swimming (Swiss Albino mice [1]) [min] | Energy and mood (in words) (Swiss Albino mice [1]; force swim test on 28th day) | Escape latency (Swiss Albino mice [2]; oral once a day for 7 days) [s] | Effect on scopolamine-induced amnesia, memory and learning (in words) (Swiss Albino mice [2]; oral once a day for 7 days) | Escape latency, faster than control (Swiss Albino mice [2]) [%] | Duration of immobility (Swiss Albino mice [3]) [min] | Duration of mobility/active swimming (Swiss Albino mice [3]) [min] | Forelimb grip strength (in words, FIG. 1) (Swiss Albino mice [4]) | Escape latency, slower than paraxanthine (Swiss Albino mice [2]; relative to paraxanthine group) [%]
1 | Cn1c(=O)[nH]c2ncn(C)c2c1=O [paraxanthine] | 8.63 ± 1.92 | improved energy and mood | 16.38 ± 2.33 | reversal of amnesia induced by scopolamine and improved memory and learning | 46.3 | 21.38 ± 1.92 | 8.63 ± 1.92 | improved strength over control | –
2 | NCCS(=O)(=O)O [taurine] | – | – | – | – | – | 21.50 ± 2.20 | 8.50 ± 2.20 | – | –
3 | N[C@@H](Cc1ccc(O)cc1)C(=O)O [tyrosine] | 8.88 ± 1.46 | – | 8.25 ± 1.04 | – | 30.6 | – | – | improved strength at a lesser degree | 29.3
